Legend:
p38MAPKγ (MAPK12) = target: T1, p38MAPKγ (MAPK12) (Homo sapiens, UniProt P53778); test: p38 MAPKγ enzyme inhibition (Z-LYTE FRET); assay type: biochemical; conditions: Table 2A; read-out: IC50 Values for Enzyme Inhibition p38 MAPKγ
T1 construct: purchased Life Technologies
T1 sequence (P53778 1-367): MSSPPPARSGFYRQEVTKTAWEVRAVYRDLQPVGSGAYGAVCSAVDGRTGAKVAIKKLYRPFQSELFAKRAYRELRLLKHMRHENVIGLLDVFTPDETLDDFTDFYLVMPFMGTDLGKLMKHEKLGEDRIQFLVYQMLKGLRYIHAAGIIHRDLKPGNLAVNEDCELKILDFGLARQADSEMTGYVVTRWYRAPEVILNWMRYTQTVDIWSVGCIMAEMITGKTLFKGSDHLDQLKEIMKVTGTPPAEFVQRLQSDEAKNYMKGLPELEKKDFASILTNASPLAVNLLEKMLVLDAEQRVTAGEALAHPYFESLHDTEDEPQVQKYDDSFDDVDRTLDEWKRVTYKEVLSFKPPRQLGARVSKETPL
Procedure, shortened: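 Z-LYTE read-out: after 1 h protease development, only non-phosphorylated peptide is cleaved, and the donor/acceptor (coumarin/fluorescein) ratio reports phosphorylation. Beforehand, enzyme and compound (stock concentrations 0.0012–40 μg/mL) were preincubated 2 h at RT, then the kinase reaction ran 1 h at RT with peptide and ATP (8 μM and 400 μM stocks).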

Syk = target: T2, Syk (Homo sapiens, UniProt P43405); test: Syk enzyme inhibition (Z-LYTE FRET); assay type: biochemical; conditions: Table 2A
T2 construct: purchased Life Technologies
Procedure, shortened: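 Enzyme (1000, 1400 or 2000 ng/mL stocks for c-Src, Hck, Syk respectively) preincubated 2 h at RT with compound (0.0012–40 μg/mL series), then FRET peptide plus ATP (800 μM c-Src; 60 μM Hck, Syk stocks) for 1 h. Protease development 1 h; phosphorylation from coumarin/fluorescein emission ratio.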

[1] = system: TNFα release in d-U937 cells; test: LPS-induced TNFα release in d-U937 cells; assay type: cell-based; conditions: Homo sapiens, dU937; read-out: LPS Induced Release TNFα REC50 (dU937); also: relative to 10 µg/mL BIRB-796
Procedure, shortened: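 U937 cells differentiated with PMA (100–200 ng/mL, 48–72 h). Pre-treated with compound for 2 h, then stimulated with E. coli LPS (0.1 μg/mL) for 4 h. Supernatant TNFα and IL-8 measured by sandwich ELISA; inhibition versus vehicle, REC50 from concentration-response curves.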

d-U937 cells = test: Cell viability: MTT assay in differentiated U937 cells; assay type: cell-based, human; conditions: 10 μg/mL
Procedure, shortened: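 Differentiated U937 cells exposed to compound at a final 10 μg/mL, either 4 h in 5% FCS RPMI1640 or 24 h in 10% FCS RPMI1640. MTT added for 1 h, formazan dissolved in DMSO, absorbance read at 550 nm; % viability loss relative to 0.5% DMSO vehicle, with increases shown as negative values.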

For Cc1ccc(-n2nc(C(C)(C)C)cc2NC(=O)Nc2ccc(OCc3ccnc(Nc4cnc(C)c(C)n4)c3)c3ccccc23)cc1 [Example 4, 1-(3-(tert-Butyl)-1-(p-tolyl)-1H-pyrazol-5-yl)-3-(4-((2-((5,6-dimethylpyrazin-2-yl)amino)pyridin-4-yl)methoxy)naphthalen-1-yl)urea], the IC50 (p38MAPKγ (MAPK12)) was 441 nM, the IC50 (Syk) was > 16000 nM and the EC50 [1] was 25.6 nM. For the same molecule, the “MTT Assay Cell viability at time point indicated in d-U937 Cells, 4 h” value (from here on “MTT Assay Cell viability … in d-U937 Cells, 4 h”) (d-U937 cells) was “− (−ve and +ve indicate the value is below and above, respectively, the no significant effect threshold defined as 30% inhibition at 10 μg/mL at the time point indicated)” and the “MTT Assay Cell viability at time point indicated in d-U937 Cells, 24 h” value (“MTT Assay Cell viability … 24 h” for short) (d-U937 cells) was “− (−ve and +ve indicate the value is below and above, respectively, the no significant effect threshold defined as 30% inhibition at 10 μg/mL at the time point indicated)”.

COc1cncc(Nc2cc(COc3ccc(NC(=O)Nc4cc(C(C)(C)C)nn4-c4ccc(C)cc4)c4ccccc34)ccn2)n1 [Example 18] was tested, and the IC50 (p38MAPKγ (MAPK12)) was 104 nM, the IC50 (Syk) was > 15900 nM and the EC50 [1] was 2.6 nM. For the same molecule, the “MTT Assay Cell viability … in d-U937 Cells, 4 h” value (d-U937 cells) was “− (−ve and +ve indicate the value is below and above, respectively, the no significant effect threshold defined as 30% inhibition at 10 μg/mL at the time point indicated)” and the “MTT Assay Cell viability … 24 h” value (d-U937 cells) was “+ (−ve and +ve indicate the value is below and above, respectively, the no significant effect threshold defined as 30% inhibition at 10 μg/mL at the time point indicated)”.

Work on COc1ccc(-n2nc(C(C)(C)C)cc2NC(=O)Nc2ccc(OCc3ccnc(Nc4cnccn4)c3)c3ccccc23)cc1Cl [Example 46] yielded an IC50 (p38MAPKγ (MAPK12)) of 1950 nM, an IC50 (Syk) of 6700 nM and an EC50 [1] of 0.7 nM. The “MTT Assay Cell viability … in d-U937 Cells, 4 h” value (d-U937 cells) was “− (−ve and +ve indicate the value is below and above, respectively, the no significant effect threshold defined as 30% inhibition at 10 μg/mL at the time point indicated)” and the “MTT Assay Cell viability … 24 h” value (d-U937 cells) was “− (−ve and +ve indicate the value is below and above, respectively, the no significant effect threshold defined as 30% inhibition at 10 μg/mL at the time point indicated)”.

Cc1ccc(-n2nc(C(C)(C)C)cc2NC(=O)Nc2ccc(OCc3ccnc(Nc4cnc(C(=O)N(C)C)cn4)c3)c3ccccc23)cc1 [Example 9, 5-((4-(((4-(3-(3-(tert-Butyl)-1-(p-tolyl)-1H-pyrazol-5-yl)ureido)naphthalen-1-yl)oxy)methyl)pyridin-2-yl)amino)-N,N-dimethylpyrazine-2-carboxamide] was tested, and the IC50 (p38MAPKγ (MAPK12)) was 9240 nM, the IC50 (Syk) was > 14900 nM and the EC50 [1] was 1.3 nM. The “MTT Assay Cell viability … in d-U937 Cells, 4 h” value (d-U937 cells) was “− (−ve and +ve indicate the value is below and above, respectively, the no significant effect threshold defined as 30% inhibition at 10 μg/mL at the time point indicated)” and the “MTT Assay Cell viability … 24 h” value (d-U937 cells) was “− (−ve and +ve indicate the value is below and above, respectively, the no significant effect threshold defined as 30% inhibition at 10 μg/mL at the time point indicated)”.

In the case of CNC(=O)c1cnc(Nc2cc(COc3ccc(NC(=O)Nc4cc(C(C)(C)C)nn4-c4ccc(C)cc4)c4ccccc34)ccn2)cn1 [Example 7, 5-((4-(((4-(3-(3-(tert-Butyl)-1-(p-tolyl)-1H-pyrazol-5-yl)ureido)naphthalen-1-yl)oxy)methyl)pyridin-2-yl)amino)-N-methylpyrazine-2-carboxamide], the IC50 (p38MAPKγ (MAPK12)) is reported as 151 nM, the IC50 (Syk) is reported as > 15200 nM and the EC50 [1] is reported as 10.7 nM. For the same molecule, the “MTT Assay Cell viability … in d-U937 Cells, 4 h” value (d-U937 cells) was “+ (−ve and +ve indicate the value is below and above, respectively, the no significant effect threshold defined as 30% inhibition at 10 μg/mL at the time point indicated)” and the “MTT Assay Cell viability … 24 h” value (d-U937 cells) was “+ (−ve and +ve indicate the value is below and above, respectively, the no significant effect threshold defined as 30% inhibition at 10 μg/mL at the time point indicated)”.

In the case of COCCNC(=O)c1cnc(Nc2cc(COc3ccc(NC(=O)Nc4cc(C(C)(C)C)nn4-c4ccc(C)cc4)c4ccccc34)ccn2)cn1 [Example 3], the IC50 (p38MAPKγ (MAPK12)) is reported as 222 nM, the IC50 (Syk) is reported as > 14300 nM and the EC50 [1] is reported as 5.5 nM. The “MTT Assay Cell viability … in d-U937 Cells, 4 h” value (d-U937 cells) was “− (−ve and +ve indicate the value is below and above, respectively, the no significant effect threshold defined as 30% inhibition at 10 μg/mL at the time point indicated)” and the “MTT Assay Cell viability … 24 h” value (d-U937 cells) was “− (−ve and +ve indicate the value is below and above, respectively, the no significant effect threshold defined as 30% inhibition at 10 μg/mL at the time point indicated)”.

For Cc1ccc(-n2nc(C(C)(C)C)cc2NC(=O)Nc2ccc(OCc3ccnc(Nc4cnc(C(=O)N5CCCC5)cn4)c3)c3ccccc23)cc1 [Example 36], the IC50 (p38MAPKγ (MAPK12)) was 1070 nM, the IC50 (Syk) was > 14400 nM and the EC50 [1] was 1.6 nM. For the same molecule, the “MTT Assay Cell viability … in d-U937 Cells, 4 h” value (d-U937 cells) was “− (−ve and +ve indicate the value is below and above, respectively, the no significant effect threshold defined as 30% inhibition at 10 μg/mL at the time point indicated)” and the “MTT Assay Cell viability … 24 h” value (d-U937 cells) was “− (−ve and +ve indicate the value is below and above, respectively, the no significant effect threshold defined as 30% inhibition at 10 μg/mL at the time point indicated)”.

Work on Cc1ccc(-n2nc(C(C)(C)C)cc2NC(=O)Nc2ccc(OCc3ccnc(Nc4cncc(C5CCC5)n4)c3)c3ccccc23)cc1 [Example 47] yielded an IC50 (p38MAPKγ (MAPK12)) of 473 nM, an IC50 (Syk) of 4150 nM and an EC50 [1] of 5.8 nM. For the same molecule, the “MTT Assay Cell viability … in d-U937 Cells, 4 h” value (d-U937 cells) was “− (−ve and +ve indicate the value is below and above, respectively, the no significant effect threshold defined as 30% inhibition at 10 μg/mL at the time point indicated)” and the “MTT Assay Cell viability … 24 h” value (d-U937 cells) was “− (−ve and +ve indicate the value is below and above, respectively, the no significant effect threshold defined as 30% inhibition at 10 μg/mL at the time point indicated)”.

With CNC(=O)Cc1cnc(Nc2cc(COc3ccc(NC(=O)Nc4cc(C(C)(C)C)nn4-c4ccc(C)cc4)c4ccccc34)ccn2)cn1 [Example 33] the IC50 (p38MAPKγ (MAPK12)) was 53 nM, the IC50 (Syk) was > 14900 nM and the EC50 [1] was 2.6 nM. The “MTT Assay Cell viability … in d-U937 Cells, 4 h” value (d-U937 cells) was “− (−ve and +ve indicate the value is below and above, respectively, the no significant effect threshold defined as 30% inhibition at 10 μg/mL at the time point indicated)” and the “MTT Assay Cell viability … 24 h” value (d-U937 cells) was “− (−ve and +ve indicate the value is below and above, respectively, the no significant effect threshold defined as 30% inhibition at 10 μg/mL at the time point indicated)”.

In the case of Cc1ccc(-n2nc(C(C)(C)C)cc2NC(=O)Nc2ccc(OCc3ccnc(Nc4cncc(CC(N)=O)n4)c3)c3ccccc23)cc1 [Example 32], the IC50 (p38MAPKγ (MAPK12)) is reported as 37 nM, the IC50 (Syk) is reported as > 15200 nM and the EC50 [1] is reported as 13 nM. The “MTT Assay Cell viability … in d-U937 Cells, 4 h” value (d-U937 cells) was “− (−ve and +ve indicate the value is below and above, respectively, the no significant effect threshold defined as 30% inhibition at 10 μg/mL at the time point indicated)” and the “MTT Assay Cell viability … 24 h” value (d-U937 cells) was “− (−ve and +ve indicate the value is below and above, respectively, the no significant effect threshold defined as 30% inhibition at 10 μg/mL at the time point indicated)”.

CCc1cnc(Nc2cc(COc3ccc(NC(=O)Nc4cc(C(C)(C)C)nn4-c4ccc(C)cc4)c4ccccc34)ccn2)cn1 [Example 37] was tested, and the IC50 (p38MAPKγ (MAPK12)) was 569 nM, the IC50 (Syk) was > 16000 nM and the EC50 [1] was 14.3 nM. For the same molecule, the “MTT Assay Cell viability … in d-U937 Cells, 4 h” value (d-U937 cells) was “− (−ve and +ve indicate the value is below and above, respectively, the no significant effect threshold defined as 30% inhibition at 10 μg/mL at the time point indicated)” and the “MTT Assay Cell viability … 24 h” value (d-U937 cells) was “− (−ve and +ve indicate the value is below and above, respectively, the no significant effect threshold defined as 30% inhibition at 10 μg/mL at the time point indicated)”.

CC(=O)NCc1cnc(Nc2cc(COc3ccc(NC(=O)Nc4cc(C(C)(C)C)nn4-c4ccc(C)cc4)c4ccccc34)ccn2)cn1 [Example 6, N-((5-((4-(((4-(3-(3-(tert-butyl)-1-(p-tolyl)-1H-pyrazol-5-yl)ureido)naphthalen-1-yl)oxy)methyl)pyridin-2-yl)amino)pyrazin-2-yl)methyl)acetamide] was tested, and the IC50 (p38MAPKγ (MAPK12)) was 37 nM, the IC50 (Syk) was 7520 nM and the EC50 [1] was 8.5 nM. For the same molecule, the “MTT Assay Cell viability … in d-U937 Cells, 4 h” value (d-U937 cells) was “− (−ve and +ve indicate the value is below and above, respectively, the no significant effect threshold defined as 30% inhibition at 10 μg/mL at the time point indicated)” and the “MTT Assay Cell viability … 24 h” value (d-U937 cells) was “− (−ve and +ve indicate the value is below and above, respectively, the no significant effect threshold defined as 30% inhibition at 10 μg/mL at the time point indicated)”.
